Measurements taken from PubChem BioAssay AID1963431 (Molecular Pharmacology Branch, DTP, NCI, 2024).

Test system: Rh18 complex spheroid viability, percent test/control
Assay: Anticancer human tumor Rh18 cell line growth inhibition [Asc];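 note: spheroids exposed to compound for 7 days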;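 for viability, T/C: 100% = DMSO vehicle control wells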
Conditions: for IC50: curve of first compound; for viability, T/C: stronger effect = lower value
How it was run: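 Complex solid-tumor spheroids incorporating human endothelial and mesenchymal stem cells received single agents or combinations over half-log dilution ranges anchored to clinical Cmax.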

[1] = second compound 0.1 µM, first compound 0.0316 µM
[2] = second compound 0.1 µM, first compound 0.1 µM
[3] = second compound 0.1 µM, first compound 0.316 µM
[4] = second compound 0.1 µM, first compound 1 µM
[5] = second compound 0.1 µM, first compound 3.16 µM
[6] = second compound 0.1 µM, first compound 10 µM
[7] = second compound 0.316 µM, first compound 0.0316 µM
[8] = second compound 0.316 µM, first compound 0.1 µM
[9] = second compound 0.316 µM, first compound 0.316 µM
[10] = second compound 0.316 µM, first compound 1 µM
[11] = second compound 0.316 µM, first compound 3.16 µM
[12] = second compound 0.316 µM, first compound 10 µM
[13] = second compound 1 µM, first compound 0.0316 µM
[14] = second compound 1 µM, first compound 0.1 µM
[15] = second compound 1 µM, first compound 0.316 µM
[16] = second compound 1 µM, first compound 1 µM
[17] = second compound 1 µM, first compound 3.16 µM
[18] = second compound 1 µM, first compound 10 µM

`Cc1nc(N2CCC3(CC2)COC(C)C3N)c(CO)nc1Sc1ccnc(N)c1Cl` (centres undefined) + CNC(C)C(=O)NC1CN(S(=O)(=O)c2cccc(S(=O)(=O)N3CCC4CCC(C(=O)NC(c5ccccc5)c5ccccc5)N4C(=O)C(NC(=O)C(C)NC)C3)c2)CCC2CCC(C(=O)NC(c3ccccc3)c3ccccc3)N2C1=O gave an IC50 (second compound 0.00316 µM) of 0.0123 µM, an IC50 (second compound 0.01 µM) of 0.0188 µM and an IC50 (second compound 0.0316 µM) of 0.0124 µM. It also gave an IC50 (second compound 0.1 µM) of 0.0156 µM, an IC50 (second compound 0.316 µM) of under 0.00949 µM and an IC50 (second compound 1 µM) of 0.0115 µM. For the same molecule, the viability, T/C (second compound 0.00316 µM, first compound 0.00949 µM) was 44.4%, the viability, T/C (second compound 0.00316 µM, first compound 0.03 µM) was 60% and the viability, T/C (second compound 0.00316 µM, first compound 0.0949 µM) was 34.7%. The viability, T/C (second compound 0.00316 µM, first compound 0.3 µM) was 33.7%, the viability, T/C (second compound 0.00316 µM, first compound 0.949 µM) was 23.2% and the viability, T/C (second compound 0.00316 µM, first compound 3 µM) was 12.9%. It also gave a viability, T/C (second compound 0.01 µM, first compound 0.00949 µM) of 56%, a viability, T/C (second compound 0.01 µM, first compound 0.03 µM) of 48.8% and a viability, T/C (second compound 0.01 µM, first compound 0.0949 µM) of 30.7%. The viability, T/C (second compound 0.01 µM, first compound 0.3 µM) was 25.8%, the viability, T/C (second compound 0.01 µM, first compound 0.949 µM) was 23.2% and the viability, T/C (second compound 0.01 µM, first compound 3 µM) was 14.9%. The viability, T/C (second compound 0.0316 µM, first compound 0.00949 µM) was 51.2%, the viability, T/C (second compound 0.0316 µM, first compound 0.03 µM) was 45.7% and the viability, T/C (second compound 0.0316 µM, first compound 0.0949 µM) was 31.2%. It also gave a viability, T/C (second compound 0.0316 µM, first compound 0.3 µM) of 23.3%, a viability, T/C (second compound 0.0316 µM, first compound 0.949 µM) of 23.4% and a viability, T/C (second compound 0.0316 µM, first compound 3 µM) of 16.1%. It also gave a viability, T/C (second compound 0.1 µM, first compound 0.00949 µM) of 63%, a viability, T/C (second compound 0.1 µM, first compound 0.03 µM) of 32.3% and a viability, T/C (second compound 0.1 µM, first compound 0.0949 µM) of 22.9%. It also gave a viability, T/C (second compound 0.1 µM, first compound 0.3 µM) of 28.2%, a viability, T/C (second compound 0.1 µM, first compound 0.949 µM) of 21.9% and a viability, T/C (second compound 0.1 µM, first compound 3 µM) of 13.2%. The viability, T/C (second compound 0.316 µM, first compound 0.00949 µM) was 45.9%, the viability, T/C (second compound 0.316 µM, first compound 0.03 µM) was 24.1% and the viability, T/C (second compound 0.316 µM, first compound 0.0949 µM) was 31.3%. The viability, T/C (second compound 0.316 µM, first compound 0.3 µM) was 25.5%, the viability, T/C (second compound 0.316 µM, first compound 0.949 µM) was 18.9% and the viability, T/C (second compound 0.316 µM, first compound 3 µM) was 13.9%. The viability, T/C (second compound 1 µM, first compound 0.00949 µM) was 54%, the viability, T/C (second compound 1 µM, first compound 0.03 µM) was 30% and the viability, T/C (second compound 1 µM, first compound 0.0949 µM) was 22%. The viability, T/C (second compound 1 µM, first compound 0.3 µM) was 22.8%, the viability, T/C (second compound 1 µM, first compound 0.949 µM) was 37.9% and the viability, T/C (second compound 1 µM, first compound 3 µM) was 16.7%.
`C#Cc1c(F)ccc2cc(O)cc(-c3ncc4c(N5CC6CCC(C5)N6)nc(OCC56CCCN5CC(F)C6)nc4c3F)c12` (centres undefined) + CNC(C)C(=O)NC1CN(S(=O)(=O)c2cccc(S(=O)(=O)N3CCC4CCC(C(=O)NC(c5ccccc5)c5ccccc5)N4C(=O)C(NC(=O)C(C)NC)C3)c2)CCC2CCC(C(=O)NC(c3ccccc3)c3ccccc3)N2C1=O gave an IC50 (second compound 0.00316 µM) of 5.08 µM, an IC50 (second compound 0.01 µM) of 4.31 µM and an IC50 (second compound 0.0316 µM) of 3.64 µM. For the same molecule, the IC50 (second compound 0.1 µM) was under 0.0316 µM, the IC50 (second compound 0.316 µM) was 1.79 µM and the IC50 (second compound 1 µM) was 3.38 µM. It also gave a viability, T/C (second compound 0.00316 µM, first compound 0.0316 µM) of 67.1%, a viability, T/C (second compound 0.00316 µM, first compound 0.1 µM) of 60.7% and a viability, T/C (second compound 0.00316 µM, first compound 0.316 µM) of 64.5%. For the same molecule, the viability, T/C (second compound 0.00316 µM, first compound 1 µM) was 65%, the viability, T/C (second compound 0.00316 µM, first compound 3.16 µM) was 70.7% and the viability, T/C (second compound 0.00316 µM, first compound 10 µM) was 27.7%. For the same molecule, the viability, T/C (second compound 0.01 µM, first compound 0.0316 µM) was 57.4%, the viability, T/C (second compound 0.01 µM, first compound 0.1 µM) was 60.7% and the viability, T/C (second compound 0.01 µM, first compound 0.316 µM) was 50.2%. For the same molecule, the viability, T/C (second compound 0.01 µM, first compound 1 µM) was 74.8%, the viability, T/C (second compound 0.01 µM, first compound 3.16 µM) was 63.9% and the viability, T/C (second compound 0.01 µM, first compound 10 µM) was 18.9%. It also gave a viability, T/C (second compound 0.0316 µM, first compound 0.0316 µM) of 63.2%, a viability, T/C (second compound 0.0316 µM, first compound 0.1 µM) of 40.7% and a viability, T/C (second compound 0.0316 µM, first compound 0.316 µM) of 52.2%. For the same molecule, the viability, T/C (second compound 0.0316 µM, first compound 1 µM) was 55.3%, the viability, T/C (second compound 0.0316 µM, first compound 3.16 µM) was 61.5% and the viability, T/C (second compound 0.0316 µM, first compound 10 µM) was 17.6%. It also gave a viability, T/C [1] of 40.1%, a viability, T/C [2] of 52.3% and a viability, T/C [3] of 40.3%. For the same molecule, the viability, T/C [4] was 61.9%, the viability, T/C [5] was 50.9% and the viability, T/C [6] was 14.1%. For the same molecule, the viability, T/C [7] was 74.4%, the viability, T/C [8] was 69% and the viability, T/C [9] was 58.9%. For the same molecule, the viability, T/C [10] was 47.2%, the viability, T/C [11] was 54.4% and the viability, T/C [12] was 11.8%. The viability, T/C [13] was 78.2%, the viability, T/C [14] was 50.2% and the viability, T/C [15] was 45%. For the same molecule, the viability, T/C [16] was 51.6%, the viability, T/C [17] was 53.3% and the viability, T/C [18] was 10.5%.
In the case of `C=CC(=O)N1CCN(c2nc(=O)n(-c3c(C)ccnc3C(C)C)c3nc(-c4c(O)cccc4F)c(F)cc23)C(C)C1` (centres undefined) + Cc1c(S(C)(=O)=O)c(-c2cc(F)cc(N3CCN(c4ccc(NS(=O)(=O)c5ccc(NC(CCN6CCC(C(=O)OCCCP(=O)(O)O)CC6)CSc6ccccc6)c(S(=O)(=O)C(F)(F)F)c5)cc4)CC3)c2)c(-c2ccc(Cl)cc2)n1C(C)C, the IC50 (second compound 0.1 µM) is reported as under 0.0316 µM, the IC50 (second compound 0.316 µM) is reported as under 0.0316 µM and the IC50 (second compound 1 µM) is reported as under 0.0316 µM. It also gave an IC50 (second compound 3.16 µM) of under 0.0316 µM, an IC50 (second compound 10 µM) of under 0.0316 µM and a viability, T/C [1] of 15.2%. It also gave a viability, T/C [2] of 17%, a viability, T/C [3] of 15.5% and a viability, T/C [4] of 19%. It also gave a viability, T/C [5] of 20.8%, a viability, T/C [6] of 29.2% and a viability, T/C [7] of 11.4%. For the same molecule, the viability, T/C [8] was 11.5%, the viability, T/C [9] was 11.4% and the viability, T/C [10] was 12.6%. The viability, T/C [11] was 15.1%, the viability, T/C [12] was 17.5% and the viability, T/C [13] was 8.27%. The viability, T/C [14] was 8.47%, the viability, T/C [15] was 8.62% and the viability, T/C [16] was 7.63%. It also gave a viability, T/C [17] of 11.4%, a viability, T/C [18] of 15% and a viability, T/C (second compound 3.16 µM, first compound 0.0316 µM) of 6.03%. The viability, T/C (second compound 3.16 µM, first compound 0.1 µM) was 8.21%, the viability, T/C (second compound 3.16 µM, first compound 0.316 µM) was 7.26% and the viability, T/C (second compound 3.16 µM, first compound 1 µM) was 8.5%. It also gave a viability, T/C (second compound 3.16 µM, first compound 3.16 µM) of 7.74%, a viability, T/C (second compound 3.16 µM, first compound 10 µM) of 13.2% and a viability, T/C (second compound 10 µM, first compound 0.0316 µM) of 3.36%. The viability, T/C (second compound 10 µM, first compound 0.1 µM) was 5.72%, the viability, T/C (second compound 10 µM, first compound 0.316 µM) was 4.34% and the viability, T/C (second compound 10 µM, first compound 1 µM) was 7.21%. It also gave a viability, T/C (second compound 10 µM, first compound 3.16 µM) of 5.57% and a viability, T/C (second compound 10 µM, first compound 10 µM) of 13%.
